Key:
Assay in all cases: KiNativ profiling in human PBMCs
Format in all cases: binding
[1] = test system: T1, MST1; settings: Lys1
T1 construct: purchased ActivX Technologies (KiNativ)
Method in brief: (§1)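 Cellular kinase profiling (KiNativ) was run on peripheral blood mononuclear cells incubated live with compound, tested at 1 µM and 0.1 µM.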

[2] = test system: T2, LKB1; settings: Lys2
T2 construct: purchased ActivX Technologies (KiNativ)
Method in brief: as §1

[3] = test system: T3, RSK2 domain2; settings: Lys2
T3 construct: RSK2 domain2; purchased ActivX Technologies (KiNativ)
Method in brief: as §1

[4] = test system: T4, LYN
T4 construct: purchased ActivX Technologies (KiNativ)
Method in brief: as §1

[5] = test system: PKCa,PKCb; settings: Lys2
Method in brief: as §1

[6] = test system: T5, ACK; settings: Lys1
T5 construct: purchased ActivX Technologies (KiNativ)
Method in brief: as §1

[7] = test system: T6, MAP2K3
T6 construct: purchased ActivX Technologies (KiNativ)
Method in brief: as §1

[8] = test system: T7, PITSLRE; settings: Lys2
T7 construct: purchased ActivX Technologies (KiNativ)
Method in brief: as §1

[9] = test system: MAP2K1,MAP2K2; settings: Lys2
Method in brief: as §1

[10] = test system: T8, STLK5
T8 construct: purchased ActivX Technologies (KiNativ)
Method in brief: as §1

[11] = test system: T9, CHK2
T9 construct: purchased ActivX Technologies (KiNativ)
Method in brief: as §1

[12] = test system: T10, BTK
T10 construct: purchased ActivX Technologies (KiNativ)
Method in brief: as §1

[13] = test system: T11, PAN3; settings: ATP
T11 construct: purchased ActivX Technologies (KiNativ)
Method in brief: as §1

[14] = test system: MST4,YSK1; settings: Lys2
Method in brief: as §1

[15] = test system: p70S6K,p70S6Kb; settings: ATP Loop
Method in brief: as §1

[16] = test system: T12, CDC2; settings: Lys2
T12 construct: purchased ActivX Technologies (KiNativ)
Method in brief: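 Live human peripheral blood mononuclear cells were treated with compound at 1 µM and 0.1 µM, then kinase engagement was profiled by the KiNativ procedure.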

[17] = test system: T13, PKD2; settings: Lys1
T13 construct: purchased ActivX Technologies (KiNativ)
Method in brief: as §1

[18] = test system: T14, CDK2
T14 construct: purchased ActivX Technologies (KiNativ)
Method in brief: as §1

[19] = test system: T15, MST3
T15 construct: purchased ActivX Technologies (KiNativ)
Method in brief: as §1

[20] = test system: IKKe,TBK1; settings: Lys2
Method in brief: as §1

[21] = test system: T16, CaMK2g; settings: Lys1
T16 construct: purchased ActivX Technologies (KiNativ)
Method in brief: as §1

[22] = test system: T17, NuaK2; settings: Lys1
T17 construct: purchased ActivX Technologies (KiNativ)
Method in brief: as §1

[23] = test system: T18, RIPK3; settings: Lys2
T18 construct: purchased ActivX Technologies (KiNativ)
Method in brief: as §1

[24] = test system: T19, JAK1 domain2
T19 construct: JAK1 domain2; purchased ActivX Technologies (KiNativ)
Method in brief: as §1

[25] = test system: T20, ZAK; settings: Lys1
T20 construct: purchased ActivX Technologies (KiNativ)
Method in brief: as §1

[26] = test system: T21, HPK1
T21 construct: purchased ActivX Technologies (KiNativ)
Method in brief: as §1

[27] = test system: T22, CaMKK2
T22 construct: purchased ActivX Technologies (KiNativ)
Method in brief: as §1

[28] = test system: T23, MAP2K7; settings: Lys2
T23 construct: purchased ActivX Technologies (KiNativ)
Method in brief: as §1

[29] = test system: AKT2,AKT3; settings: ATP Loop
Method in brief: as §1

[30] = test system: T24, TAO2; settings: Lys2
T24 construct: purchased ActivX Technologies (KiNativ)
Method in brief: as §1

[31] = test system: T25, LOK
T25 construct: purchased ActivX Technologies (KiNativ)
Method in brief: as §1

[32] = test system: T26, MAP2K5
T26 construct: purchased ActivX Technologies (KiNativ)
Method in brief: as §1

[33] = test system: T27, MAP2K4
T27 construct: purchased ActivX Technologies (KiNativ)
Method in brief: as §1

[34] = test system: T28, IRE1; settings: Lys2
T28 construct: purchased ActivX Technologies (KiNativ)
Method in brief: as §1

[35] = test system: JNK1,JNK2,JNK3; settings: Lys2
Method in brief: as §1

[36] = test system: T29, NEK8; settings: Lys2
T29 construct: purchased ActivX Technologies (KiNativ)
Method in brief: as §1

Cn1cc(-c2c[nH]c3ncnc(N4CCOCC4)c23)cc1C#N [PFE-360]
% Inhibition ([1]; 0.1µM): 16.8% | % Inhibition ([1]; 1µM): 34.1% | % Inhibition ([2]; 0.1µM): 6.5% | % Inhibition ([2]; 1µM): 0.4% | % Inhibition ([3]; 0.1µM): -7.4% | % Inhibition ([3]; 1µM): -13.8% | % Inhibition ([4]; 0.1µM, Activation Loop): 7.3% | % Inhibition ([4]; 0.1µM, Lys1): -30.4% | % Inhibition ([4]; 1µM, Activation Loop): 7.8% | % Inhibition ([4]; 1µM, Lys1): 7.4% | % Inhibition ([5]; 0.1µM): -32.8% | % Inhibition ([5]; 1µM): -10.6% | % Inhibition ([6]; 0.1µM): -5.6% | % Inhibition ([6]; 1µM): -0.5% | % Inhibition ([7]; 0.1µM, Lys1): -7.9% | % Inhibition ([7]; 0.1µM, Lys2): 9.4% | % Inhibition ([7]; 1µM, Lys1): 11.1% | % Inhibition ([7]; 1µM, Lys2): -11.7% | % Inhibition ([8]; 0.1µM): -3.8% | % Inhibition ([8]; 1µM): -18.7% | % Inhibition ([9]; 0.1µM): 13.4% | % Inhibition ([9]; 1µM): 12.9% | % Inhibition ([10]; 0.1µM, Activation Loop): -11% | % Inhibition ([10]; 0.1µM, Lys2): 10.9% | % Inhibition ([10]; 1µM, Activation Loop): -2.2% | % Inhibition ([10]; 1µM, Lys2): -15.8% | % Inhibition ([11]; 0.1µM, Lys1): 3.6% | % Inhibition ([11]; 0.1µM, Lys2): -6.7% | % Inhibition ([11]; 1µM, Lys1): -2.7% | % Inhibition ([11]; 1µM, Lys2): -12.6% | % Inhibition ([12]; 0.1µM, Activation Loop): -5.6% | % Inhibition ([12]; 0.1µM, Lys1): -12.3% | % Inhibition ([12]; 1µM, Activation Loop): -15.5% | % Inhibition ([12]; 1µM, Lys1): 2.1% | % Inhibition ([13]; 0.1µM): -22.1% | % Inhibition ([13]; 1µM): 10.4% | % Inhibition ([14]; 0.1µM): -0.2% | % Inhibition ([14]; 1µM): -16.6% | % Inhibition ([15]; 0.1µM): -0.2% | % Inhibition ([15]; 1µM): 13.2% | % Inhibition ([16]; 0.1µM, peptide DLKPQNLLIDDK): -1.5% | % Inhibition ([16]; 0.1µM, peptide DLKPQNLLIDDKGTIK): -4.2% | % Inhibition ([16]; 1µM, peptide DLKPQNLLIDDK): 4.1% | % Inhibition ([17]; 0.1µM): 3.7% | % Inhibition ([17]; 1µM): -5.1% | % Inhibition ([18]; 0.1µM, Lys1): -5.8% | % Inhibition ([18]; 0.1µM, Lys2): 4.2% | % Inhibition ([18]; 1µM, Lys1): -5.5% | % Inhibition ([18]; 1µM, Lys2): -2.9% | % Inhibition ([19]; 0.1µM, Lys1): -15.8% | % Inhibition ([19]; 0.1µM, Lys2): -6.1% | % Inhibition ([19]; 1µM, Lys1): -21.2% | % Inhibition ([19]; 1µM, Lys2): -16.2% | % Inhibition ([20]; 0.1µM): -25.5% | % Inhibition ([20]; 1µM): 16% | % Inhibition ([21]; 0.1µM): 11.1% | % Inhibition ([21]; 1µM): 9.2% | % Inhibition ([22]; 0.1µM): 14.4% | % Inhibition ([22]; 1µM): 4.6% | % Inhibition ([23]; 0.1µM): 16.1% | % Inhibition ([23]; 1µM): 27.3% | % Inhibition ([24]; 0.1µM, Activation Loop): -1.9% | % Inhibition ([24]; 0.1µM, Lys1): 0% | % Inhibition ([24]; 1µM, Activation Loop): -10.1% | % Inhibition ([24]; 1µM, Lys1): -13.8% | % Inhibition ([25]; 0.1µM): -12.2% | % Inhibition ([25]; 1µM): -10.2% | % Inhibition ([26]; 0.1µM, Lys1): -22.3% | % Inhibition ([26]; 0.1µM, Lys2): 1.2% | % Inhibition ([26]; 1µM, Lys1): 7.8% | % Inhibition ([26]; 1µM, Lys2): 0% | % Inhibition ([27]; 0.1µM, Lys1): -23.9% | % Inhibition ([27]; 0.1µM, Lys2): -16.3% | % Inhibition ([27]; 1µM, Lys1): -1.2% | % Inhibition ([27]; 1µM, Lys2): 4.6% | % Inhibition ([28]; 0.1µM): 7.5% | % Inhibition ([28]; 1µM): -1.1% | % Inhibition ([29]; 0.1µM): -2.2% | % Inhibition ([29]; 1µM): -5.2% | % Inhibition ([30]; 0.1µM): 1.1% | % Inhibition ([30]; 1µM): -26.1% | % Inhibition ([31]; 0.1µM, ATP Loop): 26.9% | % Inhibition ([31]; 0.1µM, Lys1): 5.3% | % Inhibition ([31]; 0.1µM, Lys2): -2.3% | % Inhibition ([31]; 1µM, ATP Loop): 29.8% | % Inhibition ([31]; 1µM, Lys1): 39.7% | % Inhibition ([31]; 1µM, Lys2): 22.4% | % Inhibition ([32]; 0.1µM, Lys1): 4.7% | % Inhibition ([32]; 0.1µM, Lys2): -4.6% | % Inhibition ([32]; 1µM, Lys1): -10.3% | % Inhibition ([32]; 1µM, Lys2): 31.9% | % Inhibition ([33]; 0.1µM, Lys1): -7.3% | % Inhibition ([33]; 0.1µM, Lys2): 7.4% | % Inhibition ([33]; 1µM, Lys1): 11% | % Inhibition ([33]; 1µM, Lys2): -3.8% | % Inhibition ([34]; 0.1µM): -14.5% | % Inhibition ([34]; 1µM): 10.8% | % Inhibition ([35]; 0.1µM): 2.1% | % Inhibition ([35]; 1µM): -12% | % Inhibition ([36]; 0.1µM): -1.8% | % Inhibition ([36]; 1µM): -12.1%

Source: PMC5578959, “Selective LRRK2 kinase inhibition reduces phosphorylation of endogenous Rab10 and Rab12 in human peripheral mononuclear blood cells” (Scientific Reports, 2017)
